Legend:
nursery pigs [1] = experiment: Example 4: organic trace minerals and antibiotics with GEM blend in low lactose diets, nursery pig performance (BW, ADG, ADFI, GF); type: in vivo; details: Phase I, 0 to 7 days post weaning; regardless of lactose level; P<0.07
Description: Forty-two pens of pigs with about 20-25 pigs/pen blocked by weight were used. Pig body weights were collected initially (day 0) and at the end of each phase (days 7 and 21 post weaning). Feed consumption was measured from days 0-7 (Phase I) and from days 8-21 (Phase II) post weaning. Growth rate was calculated as average daily gain (ADG), daily feed intake was calculated as average daily feed intake (ADFI) and feed efficiency was calculated as the ratio of gain:feed (GF).
Phase I was from day 0 to 7 post weaning and Phase II was from day 8 to 21 post weaning. Composition and analysis of the experimental diets used in Phase I are described in Tables 18 and 19, respectively. Composition and analysis of the experimental diets used in Phase II are described in Tables 20 and 21, respectively. Diets in treatments 1 and 6 contained the high lactose levels of 20% and 10% in Phase I and II, respectively. All other treatments had diets containing the low lactose levels of 5% and 2.5% in Phase I and II, respectively. Antibiotic, GEM blend and OTM treatments during the two phases were as follows:
Phase I (0 to 7 Days): • 1. High lactose (20%)+enteric antibiotic. • 2. Low lactose (5%)+enteric antibiotic. • 3. Low lactose (5%)+enteric antibiotic+GEM blend. • 4. Low lactose (5%)+enteric antibiotic+OTM. • 5. Low lactose (5%)+enteric antibiotic+OTM+GEM blend. • 6. […]

nursery pigs [2] = experiment: Example 1: lactose level and acidifying agent in nursery pig diets, growth performance (BW, ADG, ADFI, GF); type: in vivo; details: for feed intake: Phase I; for average daily feed intake (ADFI): Phase II
Description: The following study was designed to determine whether a feed supplement comprising an acidifying agent could counteract the negative effects of lower levels of lactose in nursery pigs. A two-phase feeding program, with and without an acidifying agent comprising 2-hydroxy-4-methylthiobutanoic acid, fumaric acid, and benzoic acid (i.e., as provided by ACTIVATE® DA, Novus Intl), was implemented with industry norms for energy, digestible amino acids, vitamins, and minerals. The two-phase feeding program introduced ingredients in a progressive way to gently enhance maturation of the gastrointestinal system, while at the same time supplying special ingredients that should encourage maximal growth performance. The pigs were fed a Phase I diet from weaning to 10 days post weaning, and a Phase II diet from days 11 to 21 post weaning. The levels of lactose were varied in each diet phase and each level of lactose was examined with and without the acidifying agent.
A total of approximately 840 commercial breed nursery pigs (TR-4X C22 PIC lines, PIC Intl., Franklin, Ky.) were blocked by weight and sex, and then placed into a pen containing about 20-22 pigs per pen. There were a total of 42 pens that were used for 7 replications/treatment with approximately equal numbers of pens per sex/treatment. Treatments were randomly assigned to pens within a room prior to treatment initiation. Each pen was accounted as an experimental unit. The animals were cared for according to standard site practices, which include daily observations, temperature monitoring, feeder observations, and waterer observations.
Diets were balanced to meet 60 TID Met & Cys:Lys. The ideal amino acid ratio of Thr, Tryp, Ile, and Val to Lys was maintained at a minimum of 65%, 16%, 55%, and 65%, respectively, based on the TID ideal amino acid profile for swine. Diets that included the acidifying agent used MHA (DL-methionine hydroxyl analog) to balance for the methionine source, while diets without the acidifying agent used DL-Met as a methionine source. All diets were balanced to have equivalent methionine activity and properly mixed according to the diet formulations presented in Table 1 and Table 2 for Phase I, and Table 4 and Table 5 for Phase II. Calculated analyses of the diets are presented in Tables 3 and 6 for Phase I and II, respectively.
The treatment arrangements were a 3×2 factorial arrangement with three levels of lactose with and without the acidifying agent (i.e., ACTIVATE® DA at a 0.5%). Diets were formulated to provide 5%, 10%, or 20% lactose equivalent during Phase I (0 to 10 days post weaning) and 2.5%, 5%, or 10% lactose equivalent during Phase II (11 to 21 days post weaning). The lactose equivalent was provided by […]-80® (80% lactose content; International Ingredient Corporation, St. Louis, Mo.). Fishmeal and SDPP were held constant across the diets, and corn and CWG were allowed to float to provide similar energy levels. All diets were supplemented with the enteric antibiotic carbodox (i.e., MECADOX®, Phibro Animal Health, Ridgefield Park, N.J.).
The animals were observed daily including weekends and holidays. Any abnormal observations or mortalities were recorded by pen with weight and date. The body weights of the pigs were collected initially and at the end of each phase. The feed intake was collected for each phase of growth. Feed offered was measured by weighing each amount of feed used for each pen. Feed refused was measured by weighing the amount of feed left in the feeder and any remainder that had previously been recorded as feed offered.
Data were analyzed by analysis of variance procedures appropriate for a randomized block design using the General Linear Models procedure of SAS. Differences of least squares means for treatments from control pigs were determined using a least square comparison.

Molecule `COC(=O)N/N=C/c1c[n+]([O-])c2ccccc2[n+]1[O-]` [enteric antibiotic, carbodox] has a feed intake (nursery pigs [1]) of 179 g/day.

Work on `OC[C@H]1O[C@@H](O[C@H]2[C@H](O)[C@@H](O)C(O)O[C@@H]2CO)[C@H](O)[C@@H](O)[C@H]1O` (stereo partly shown) [lactose] yielded a feed intake (nursery pigs [2]; high level of lactose (20%)) of 146 g/day, a feed intake (nursery pigs [2]; intermediate level of lactose (10%)) of 150 g/day and a feed intake (nursery pigs [2]; lowest level of lactose (5%)) of 132 g/day. For the same molecule, the “average daily feed intake (ADFI)” value (nursery pigs [2]; highest lactose level (10%)) was 408 g/day, the “average daily feed intake (ADFI)” value (nursery pigs [2]; intermediate lactose level (5%)) was 400 g/day and the “average daily feed intake (ADFI)” value (nursery pigs [2]; lowest lactose level ([…])) was 384 g/day.
